Test results as given in patent publication US12370182B2, “Bicyclic derivatives as GABAA A5 receptor modulators” (RICHTER GEDEON NYRT., priority 2018, dated 2025).

Legend:
[1] = molecular target: T1, human recombinant GABAA α5β3γ2 receptor (Homo sapiens (Human), UniProt P18507+P31644); assay: Binding assay, [3H]Ro151788 displacement on membranes of HEK cells; conditions: 0.5 nM [3H]Ro151788, 60 minutes at 4° C., Cheng-Prusoff; read-out: hGABAA α5 Ki
How it was run: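 HEK-cell membranes with recombinant human α5β3γ2 incubated 60 min at 4 °C with 0.5 nM [3H]Ro151788 in 50 mM Tris pH 7.4, 100 mM KCl; nonspecific binding with 10 μM diazepam. Filtration, scintillation count; % inhibition of specific binding, IC50 from ≥6 concentrations in triplicate, Ki via Cheng-Prusoff.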

[2] = molecular target: T1, human recombinant GABAA α5β3γ2 receptor; assay: Functional assay, QPatch automated patch clamp, GABA-evoked currents; assay type: cell-based; conditions: test compound 10 μM, 1 μM GABA, HEK293 cells, percentage modulation of peak current
Description: (§1) Human HEK293 cell lines expressing GABAA α1β3γ2 and GABAAα5β3γ2 receptors were used in functional assays using the QPatch automated patch clamp system.
(§2) HEK293 cell lines stably expressing human recombinant GABAA α1β3γ2 receptor subunits (Millipore, CYL3073) or human recombinant GABAA α5β3γ2 receptor subunits (Millipore, CYL3053) were cultured in DMEM supplemented with 10% FBS (Gibco), passed two times per week and plated on Petri dishes previously coated with poly-d-lysine.
(§3) Automated whole-cell patch clamp recordings were made from cells 2-4 days after plating. Cells were detached using trypsin/EDTA (Sigma) treatment (2 minutes in 0.25% trypsin at 37° C.), then, after centrifugation (125 G, 3 min, 2×), resuspended in a serum-free based media (Gibco, CHO—S-SFM-II) containing 12.5 mM HEPES, 1× penicillin-streptomycin-amphotericin (SigmaMix) and soybean trypsin inhibitor (Sigma, 0.04 mg/ml).
(§4) Cell suspension, as well as the extracellular solution (130 mM NaCl, 5 mM KCl, 5.1 mM HEPES, 4.9 mM HEPES-Na, 10 mM CaCl2), 2 mM MgCl2, 10 mM glucose and 0.1% DMSO, pH=7.35-7.4) and the intracellular solution (80 mM KCl, 50 mM KF, 36 mM KOH, 10 mM EGTA, 10 mM HEPES, 1.75 mM MgCl2, 0.5 mM CaCl2), 4 mM Na2ATP. 14 mM phosphocreatine, 50 U/ml creatine-phosphokinase, 0.3 mM GTP, pH=7.25-7.3) were added to the QPatch-HTX automated patch clamp system (Sophion) in single-cell mode at room temperature. […] At the end of the experiment 100 μM GABA was applied to saturate the GABA-response and to assess the efficacy of the control GABA application.
(§5) The percentage modulation was calculated from the comparison of GABA-evoked peak current amplitudes in the presence and absence of the test compound.

[3] = molecular target: human recombinant GABAA α1β3γ2 receptor (Homo sapiens (Human), UniProt P14867+P18507); assay: as above; assay type: cell-based; conditions: test compound 10 μM, 1 μM GABA, HEK293 cells, percentage modulation of peak current
Sequence of human recombinant GABAA α1β3γ2 receptor (P14867 28-456): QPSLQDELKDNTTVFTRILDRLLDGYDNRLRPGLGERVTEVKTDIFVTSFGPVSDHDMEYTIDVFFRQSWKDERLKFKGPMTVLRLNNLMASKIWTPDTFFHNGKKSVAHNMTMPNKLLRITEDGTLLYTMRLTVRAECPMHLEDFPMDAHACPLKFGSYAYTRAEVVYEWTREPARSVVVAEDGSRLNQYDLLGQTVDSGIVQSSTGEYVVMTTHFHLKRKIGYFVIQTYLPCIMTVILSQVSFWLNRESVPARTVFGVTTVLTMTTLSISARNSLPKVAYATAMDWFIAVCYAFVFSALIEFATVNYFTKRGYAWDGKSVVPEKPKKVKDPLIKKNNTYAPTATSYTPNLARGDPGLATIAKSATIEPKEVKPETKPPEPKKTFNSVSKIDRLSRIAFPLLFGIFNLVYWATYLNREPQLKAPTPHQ
Sequence of human recombinant GABAA α1β3γ2 receptor (P28472 26-473 partner): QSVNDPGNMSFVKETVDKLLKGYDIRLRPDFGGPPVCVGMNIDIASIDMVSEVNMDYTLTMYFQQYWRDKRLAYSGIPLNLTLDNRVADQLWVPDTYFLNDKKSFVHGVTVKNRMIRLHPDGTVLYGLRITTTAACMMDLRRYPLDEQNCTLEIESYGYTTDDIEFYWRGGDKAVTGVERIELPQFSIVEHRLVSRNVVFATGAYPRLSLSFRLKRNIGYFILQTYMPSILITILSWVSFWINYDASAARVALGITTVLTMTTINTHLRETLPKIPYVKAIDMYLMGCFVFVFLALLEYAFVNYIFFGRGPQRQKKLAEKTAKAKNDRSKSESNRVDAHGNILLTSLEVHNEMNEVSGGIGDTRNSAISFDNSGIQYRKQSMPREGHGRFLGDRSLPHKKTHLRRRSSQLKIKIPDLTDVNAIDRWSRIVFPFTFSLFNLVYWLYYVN
Sequence of human recombinant GABAA α1β3γ2 receptor (P18507 40-475): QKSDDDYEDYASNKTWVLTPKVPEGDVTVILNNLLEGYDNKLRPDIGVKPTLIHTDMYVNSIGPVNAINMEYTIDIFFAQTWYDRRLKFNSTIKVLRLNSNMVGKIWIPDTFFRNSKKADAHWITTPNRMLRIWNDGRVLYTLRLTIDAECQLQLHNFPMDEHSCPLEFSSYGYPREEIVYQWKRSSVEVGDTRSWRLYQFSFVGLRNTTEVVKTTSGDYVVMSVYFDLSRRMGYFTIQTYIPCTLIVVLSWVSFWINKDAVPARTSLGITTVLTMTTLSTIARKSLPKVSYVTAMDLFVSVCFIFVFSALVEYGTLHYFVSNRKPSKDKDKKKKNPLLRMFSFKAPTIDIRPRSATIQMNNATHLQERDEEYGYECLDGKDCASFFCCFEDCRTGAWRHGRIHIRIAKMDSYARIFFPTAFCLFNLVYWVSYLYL
Description: as §1, §2, §3, §4, §5

T1 sequence (P31644 32-462): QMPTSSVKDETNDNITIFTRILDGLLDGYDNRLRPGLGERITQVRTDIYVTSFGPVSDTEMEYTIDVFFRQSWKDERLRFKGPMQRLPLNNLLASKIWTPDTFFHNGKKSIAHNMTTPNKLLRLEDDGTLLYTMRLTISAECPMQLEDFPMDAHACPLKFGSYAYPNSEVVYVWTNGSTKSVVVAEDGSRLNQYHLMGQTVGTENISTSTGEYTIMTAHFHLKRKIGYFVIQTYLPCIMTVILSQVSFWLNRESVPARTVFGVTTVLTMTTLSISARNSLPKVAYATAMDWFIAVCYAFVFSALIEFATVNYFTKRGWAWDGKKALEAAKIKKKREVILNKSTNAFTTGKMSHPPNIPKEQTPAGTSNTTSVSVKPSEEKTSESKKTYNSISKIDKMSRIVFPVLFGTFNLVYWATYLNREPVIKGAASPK
T1 sequence (P28472 26-473 partner): as the sequence (P28472 26-473 partner) above
T1 sequence (P18507 40-475): as the sequence (P18507 40-475) above

SMILES | Ki [1] [nM] | hGABAA α5 efficacy [2] [%] | hGABAA α1 efficacy [3] [%]
Cc1nnn(-c2ccc(F)cc2)c1COc1ccc2c(n1)CCN(C(=O)NC1CC(=O)N(C)C1)C2 (stereo not drawn) [Example 75, 2-{[1-(4-fluorophenyl)-4-methyl-1H-1,2,3-triazol-5-yl]methoxy}-N-(1-methyl-5-oxopyrrolidin-3-yl)-5,6,7,8-tetrahydro-1,6-naphthyridine-6-carboxamide] | 38 | −35 | −3
Cc1nnn(-c2ccc(F)cc2)c1COc1ccc2c(n1)CCN(C(=O)C1CCOC1)C2 (stereo not drawn) [Example 16, 2-{[1-(4-fluorophenyl)-4-methyl-1H-1,2,3-triazol-5-yl]methoxy}-6-(oxolane-3-carbonyl)-5,6,7,8-tetrahydro-1,6-naphthyridine] | 42 | −39 | −7
Cc1onc(-c2ccc(F)cc2)c1COc1ccc2c(n1)CCN(C(=O)CS(C)(=O)=O)C2 [Example 8, 1-(2-{[3-(4-fluorophenyl)-5-methyl-1,2-oxazol-4-yl]methoxy}-5,6,7,8-tetrahydro-1,6-naphthyridin-6-yl)-2-methanesulfonylethan-1-one] | 3.7 | −39 | −2
Cc1nnn(-c2ccc(F)cc2)c1COc1ccc2c(n1)CN(C(=O)CC(C)C)C2 [Example 56, 1-(2-{[1-(4-fluorophenyl)-4-methyl-1H-1,2,3-triazol-5-yl]methoxy}-5H,6H,7H-pyrrolo[3,4-b]pyridin-6-yl)-3-methylbutan-1-one] | 17 | −40 | −14
Cc1onc(-c2ccc(F)cc2)c1COc1ccc2c(n1)CCN(C(=O)C1CCS(=O)(=O)CC1)C2 [Example 6, 4-(2-{[3-(4-fluorophenyl)-5-methyl-1,2-oxazol-4-yl]methoxy}-5,6,7,8-tetrahydro-1,6-naphthyridine-6-carbonyl)-1lambda6-thiane-1,1-dione] | 2.7 | −38 | −10
Cc1nnn(-c2ccc(F)cc2)c1COc1ccc2c(n1)CCN(C(=O)C1CCS(=O)(=O)CC1)C2 [Example 23, 4-(2-{[1-(4-fluorophenyl)-4-methyl-1H-1,2,3-triazol-5-yl]methoxy}-5,6,7,8-tetrahydro-1,6-naphthyridine-6-carbonyl)-1lambda6-thiane-1,1-dione] | 45 | −47 | −4
Cc1nnn(-c2ccc(F)cc2)c1COc1ccc2c(n1)CCN(C(=O)C1CCCO1)C2 (stereo not drawn) [Example 15, 2-{[1-(4-fluorophenyl)-4-methyl-1H-1,2,3-triazol-5-yl]methoxy}-6-(oxolane-2-carbonyl)-5,6,7,8-tetrahydro-1,6-naphthyridine] | 42 | −43 | −8
Cc1nnn(-c2ccc(F)cc2)c1COc1ccc2c(n1)CCN(C(=O)NC1CCOC1)C2 (stereo not drawn) [Example 78, 2-{[1-(4-fluorophenyl)-4-methyl-1H-1,2,3-triazol-5-yl]methoxy}-N-(oxolan-3-yl)-5,6,7,8-tetrahydro-1,6-naphthyridine-6-carboxamide] | 28 | −34 | −3
Cc1onc(-c2ccc(F)cc2)c1COc1ccc2c(n1)CCN(C(=O)C1CC(=O)N(C)C1)C2 (stereo not drawn) [Example 13, 4-(2-{[3-(4-fluorophenyl)-5-methyl-1,2-oxazol-4-yl]methoxy}-5,6,7,8-tetrahydro-1,6-naphthyridine-6-carbonyl)-1-methylpyrrolidin-2-one] | 4.3 | −34 | −3
Cc1nnn(-c2ccc(F)cc2)c1COc1ccc2c(n1)CCN(C(=O)C1CCOCC1)C2 [Example 28, 2-{[1-(4-fluorophenyl)-4-methyl-1H-1,2,3-triazol-5-yl]methoxy}-6-(oxane-4-carbonyl)-5,6,7,8-tetrahydro-1,6-naphthyridine] | 43 | −40 | −6
CC(=O)N1Cc2ccc(OCc3c(C)nnn3-c3ccc(F)cc3)nc2C1 [Example 45, 1-(2-{[1-(4-fluorophenyl)-4-methyl-1H-1,2,3-triazol-5-yl]methoxy}-5H,6H,7H-pyrrolo[3,4-b]pyridin-6-yl)ethan-1-one] | 3.2 | −30 | −7
Cc1nnn(-c2ccc(F)cc2)c1COc1ccc2c(n1)CCN(C(=O)[C@H]1CCOC1)C2 [Example 18, 2-{[1-(4-fluorophenyl)-4-methyl-1H-1,2,3-triazol-5-yl]methoxy}-6-[(3S)-oxolane-3-carbonyl]-5,6,7,8-tetrahydro-1,6-naphthyridine] | 50 | −45 | −5
Cc1nnn(-c2ccc(F)cc2)c1COc1ccc2c(n1)CCN(C(=O)[C@@H]1CCOC1)C2 [Example 17, 2-{[1-(4-fluorophenyl)-4-methyl-1H-1,2,3-triazol-5-yl]methoxy}-6-[(3R)-oxolane-3-carbonyl]-5,6,7,8-tetrahydro-1,6-naphthyridine] | 69 | −37 | −6
Cc1onc(-c2ccc(F)cc2)c1COc1ccc2c(n1)CCN(C(=O)C1CCOC1)C2 (stereo not drawn) [Example 2, 2-{[3-(4-fluorophenyl)-5-methyl-1,2-oxazol-4-yl]methoxy}-6-(oxolane-3-carbonyl)-5,6,7,8-tetrahydro-1,6-naphthyridine] | 7 | −40 | −14
Cc1onc(-c2ccc(F)cc2)c1COc1ccc2c(n1)CCN(C(=O)C1CCOCC1)C2 [Example 9, 2-{[3-(4-fluorophenyl)-5-methyl-1,2-oxazol-4-yl]methoxy}-6-(oxane-4-carbonyl)-5,6,7,8-tetrahydro-1,6-naphthyridine] | 6.2 | −37 | −9
Cc1nnn(-c2ccc(Cl)cc2)c1COc1ccc2c(n1)CCN(C(=O)C1CCOC1)C2 (stereo not drawn) [Example 29, 2-{[1-(4-chlorophenyl)-4-methyl-1H-1,2,3-triazol-5-yl]methoxy}-6-(oxolane-3-carbonyl)-5,6,7,8-tetrahydro-1,6-naphthyridine] | – | −25 | −2
Cc1nnn(-c2ccc(F)cc2)c1COc1ccc2c(n1)CN(C(=O)C1CC1)C2 [Example 47, cyclopropyl(2-{[1-(4-fluorophenyl)-4-methyl-1H-1,2,3-triazol-5-yl]methoxy}-5,7-dihydro-6H-pyrrolo[3,4-b]pyridin-6-yl)methanone] | 7.2 | −34 | −10
Cc1nnn(-c2ccc(F)cc2)c1COc1ccc2c(n1)CN(C(=O)C1CCCO1)C2 (stereo not drawn) [Example 61, 1-(4-fluorophenyl)-4-methyl-5-({[6-(oxolane-2-carbonyl)-5H,6H,7H-pyrrolo[3,4-b]pyridin-2-yl]oxy}methyl)-1H-1,2,3-triazole] | 4.8 | −41 | −20
CC(=O)N1CCc2nc(OCc3c(C)nnn3-c3ccc(F)cc3)ccc2C1 [Example 14, 1-(2-{[1-(4-fluorophenyl)-4-methyl-1H-1,2,3-triazol-5-yl]methoxy}-5,6,7,8-tetrahydro-1,6-naphthyridin-6-yl)ethan-1-one] | 28 | −36 | 0
Cc1nnn(-c2ccc(F)cc2)c1COc1ccc2c(n1)CCN(C(=O)N1CCCC1)C2 [Example 77, 2-{[1-(4-fluorophenyl)-4-methyl-1H-1,2,3-triazol-5-yl]methoxy}-6-(pyrrolidine-1-carbonyl)-5,6,7,8-tetrahydro-1,6-naphthyridine] | 66 | – | –
